pIC50: −log10 of the molar value.

The values below come from patent US9957264B2 (Merck Sharp & Dohme Corp., priority 2013, dated 2018).

Assay [1] concerns the target JAK1 (recombinant purified GST-tagged catalytic domain) (Homo sapiens (Human), UniProt P23458). Description: Jak Biochemical HTRF Assay (JAK1). The following applies: [ATP] 31.8 μM. On the procedure: (§1) Jak Biochemical HTRF Assay Protocol
The ability of compounds to inhibit the activity of JAK1, JAK2, JAK3, and Tyk2 was measured using a recombinant purified GST-tagged catalytic domain for each enzyme (Invitrogen JAK1 #M4290, JAK2 #M4290, JAK3 #M4290, Tyk2 #M4290) in an HTRF format biochemical assay. The reactions employed a common peptide substrate, LCB-[…]-NH2 (in-house). The basic assay protocol is as follows: First, 250 nL of diluted compounds in DMSO were dispensed into the wells of a dry 384-well Black plate (Greiner #781076) using a Labcyte Echo 555 acoustic dispenser. Subsequent reagent additions employed an Agilent Bravo. […] After equilibration, 2 μL of 10×ATP in 1× assay buffer was added to initiate the kinase reaction and the plates were shaken and then incubated at room temperature for 120 minutes. At the end of the incubation, 20 μL of 2× stop buffer (streptavidin-Dylight 650 (Thermo #84547B/100 mL), Eu-tagged pY20 antibody (Perkin Elmer #AD0067), EDTA, HEPES, and Triton) was added to quench the reaction. Plates were shaken and centrifuged and then incubated 60 minutes at room temperature and then read on a Perkin Elmer Envision (λex=337 nm, λem=665 and 615 nm, TRF delay time=20 μs). HTRF signal=10,000*665 nm reading/615 nm reading. After normalization to untreated controls, the percent inhibition of the HTRF signal at each compound concentration was calculated. The plot of percent inhibition versus the log of compound concentration was fit with a 4-parameter dose response equation to calculate IC50 values.
(§2) Final reaction conditions were:
Examples of the instant invention were evaluated in JAK1 and JAK2 in vitro binding assays as described above. The following table tabulates the JAK1 IC50 values and JAK2 IC50 values disclosed for the instant invention.

The target of assay [2] is JAK2 (recombinant purified GST-tagged catalytic domain) (Homo sapiens (Human), UniProt O60674). Description: Jak Biochemical HTRF Assay (JAK2). The following applies: [ATP] 8.5 μM. On the procedure:
as §1
The ability of compounds to inhibit the activity of JAK1, JAK2, JAK3, and Tyk2 was measured using a recombinant purified GST-tagged catalytic domain for each enzyme (Invitrogen JAK1 #M4290, JAK2 #M4290, JAK3 #M4290, Tyk2 #M4290) in an HTRF format biochemical assay. […] The basic assay protocol is as follows: First, 250 nL of diluted compounds in DMSO were dispensed into the wells of a dry 384-well Black plate (Greiner #781076) using a Labcyte Echo 555 acoustic dispenser. Subsequent reagent additions employed an Agilent Bravo. […] After equilibration, 2 μL of 10×ATP in 1× assay buffer was added to initiate the kinase reaction and the plates were shaken and then incubated at room temperature for 120 minutes. […] Plates were shaken and centrifuged and then incubated 60 minutes at room temperature and then read on a Perkin Elmer Envision (λex=337 nm, λem=665 and 615 nm, TRF delay time=20 μs). HTRF signal=10,000*665 nm reading/615 nm reading. After normalization to untreated controls, the percent inhibition of the HTRF signal at each compound concentration was calculated. The plot of percent inhibition versus the log of compound concentration was fit with a 4-parameter dose response equation to calculate IC50 values.
as §2
Examples of the instant invention were evaluated in JAK1 and JAK2 in vitro binding assays as described above.
(Time-resolved FRET reads energy transfer from a long-lived donor to a nearby acceptor.)

Chain of JAK1 (recombinant purified GST-tagged catalytic domain) (P23458 875-1153): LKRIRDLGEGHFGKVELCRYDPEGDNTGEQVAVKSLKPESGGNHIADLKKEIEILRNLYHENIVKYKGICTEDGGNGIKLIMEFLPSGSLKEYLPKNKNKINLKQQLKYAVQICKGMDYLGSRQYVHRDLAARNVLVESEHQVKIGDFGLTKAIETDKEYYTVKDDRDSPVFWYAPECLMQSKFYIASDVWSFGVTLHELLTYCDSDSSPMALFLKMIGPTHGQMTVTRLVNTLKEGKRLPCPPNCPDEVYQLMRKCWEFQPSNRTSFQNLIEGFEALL
Chain of JAK2 (recombinant purified GST-tagged catalytic domain) (O60674 849-1124): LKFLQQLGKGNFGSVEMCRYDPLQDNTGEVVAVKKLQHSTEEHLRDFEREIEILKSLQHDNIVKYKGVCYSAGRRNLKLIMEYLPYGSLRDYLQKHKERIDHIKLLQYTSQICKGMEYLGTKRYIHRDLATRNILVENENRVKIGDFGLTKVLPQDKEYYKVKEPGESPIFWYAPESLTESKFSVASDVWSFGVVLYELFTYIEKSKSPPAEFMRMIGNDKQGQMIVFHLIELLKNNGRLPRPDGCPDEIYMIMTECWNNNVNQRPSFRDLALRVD

The pIC50 is the IC50 on a negative log10 scale, so that one unit is a factor of ten. Turning to `CN(C)[C@H]1CC[C@@](CC#N)(n2nc(Nc3ccc4c(c3)CN(C(C)(C)C)S4(=O)=O)c3c(=O)[nH]ccc32)CC1` [Example 18-38, Cis 2-(1-(3-((2-(tert-butyl)-1,1-dioxido-2,3-dihydrobenzo[d]isothiazol-5-yl)amino)-4-oxo-4,5-dihydro-1H-pyrazolo[4,3-c]pyridin-1-yl)-4-(dimethylamino)cyclohexyl)acetonitrile], the negative-log IC50 (pIC50) is 7.79 in assay [1] and 6.68 in assay [2]. As to `COC(=O)[C@@H]1CC[C@@](CC#N)(n2nc(Nc3ccc(S(C)(=O)=O)cc3)c3c(=O)[nH]ccc32)CO1` (racemic) [Example 5-32, (2S,5S and 2R,5R)-methyl 5-(cyanomethyl)-5-(3-((4-(methylsulfonyl)phenyl)amino)-4-oxo-4,5-dihydro-1H-pyrazolo[4,3-c]pyridin-1-yl)tetrahydro-2H-pyran-2-carboxylate], the figures for the pIC50 in assay [1] and in assay [2] were 9.89 and 9.06, respectively. For `CN(C)S(=O)(=O)c1ccc(Nc2nn(C3(CC#N)CCN(C(=O)C45CC6C[C@H](C4)C[C@@H](C6)C5)CC3)c3cc[nH]c(=O)c23)cc1` [Example 9-9, 4-[(1-{4-(cyanomethyl)-1-[(3S,5S,7S)-tricyclo[3.3.1.1^3,7]dec-1-ylcarbonyl]piperidin-4-yl}-4-oxo-4,5-dihydro-1H-pyrazolo[4,3-c]pyridin-3-yl)amino]-N,N-dimethylbenzenesulfonamide], in that order: 8.40 and 7.41. For `CC(C)NC(c1ccc(Nc2nn([C@]3(CC#N)CCCOC3)c3cc[nH]c(=O)c23)cc1)C(F)(F)F` (single isomer, unassigned) [Example 5-206, [(3S)-3-{4-oxo-3-[(4-{(1S or 1R)-2,2,2-trifluoro-1-[(1-methylethyl)amino]ethyl}phenyl)amino]-4,5-dihydro-1H-pyrazolo [4,3-c]pyridin-1-yl}tetrahydro-2H-pyran-3-yl]acetonitrile] the same measures were 9.89 and 9.80.

With `CS(=O)(=O)NC(=O)[C@@H]1CC[C@@](CC#N)(n2nc(Nc3ccc(Cl)cc3)c3c(=O)[nH]ccc32)CO1` [Example 22, (2S,5S)-5-(3-((4-chlorophenyl)amino)-4-oxo-4,5-dihydro-1H-pyrazolo[4,3-c]pyridin-1-yl)-5-(cyanomethyl)-N-(methylsulfonyl)tetrahydro-2H-pyran-2-carboxamide], the pIC50 is 8.42 in assay [1] and 7.63 in assay [2]. For `CC(C)(C)OC(=O)N1CC[C@](CC#N)(n2nc(Nc3ccc4c(c3)CN(CC(F)(F)F)S4(=O)=O)c3c(=O)[nH]ccc32)[C@H](F)C1` [Example 5-24, tert-butyl (3R,4R)-4-(cyanomethyl)-4-(3-{[1,1-dioxido-2-(2,2,2-trifluoroethyl)-2,3-dihydro-1,2-benzisothiazol-5-yl]amino}-4-oxo-4,5-dihydro-1H-pyrazolo[4,3-c]pyridin-1-yl)-3-fluoropiperidine-1-carboxylate], in that order: 9.70 and 9.60. For `CC(C)S(=O)(=O)c1ccc(Nc2nn(C3(CC#N)CCN(C(=O)C(C)(F)F)CC3)c3cc[nH]c(=O)c23)cc1` [Example 5-57, 2-(1-(2,2-difluoropropanoyl)-4-(3-((4-(isopropylsulfonyl)phenyl)amino)-4-oxo-4,5-dihydro-1H-pyrazolo[4,3-c]pyridin-1-yl)piperidin-4-yl)acetonitrile] the same measures were 10.10 and 9.89. For `Cc1cc(Nc2nn([C@]3(CC#N)CC[C@@H](C(=O)OC(C)(C)C)OC3)c3cc[nH]c(=O)c23)ccc1-n1cccn1` [Example 5-219, (2S,5S)-tert-butyl 5-(cyanomethyl)-5-(3-((3-methyl-4-(1H-pyrazol-1-yl)phenyl)amino)-4-oxo-4,5-dihydro-1H-pyrazolo [4,3-c]pyridin-1-yl) tetrahydro-2H-pyran-2-carboxylate], in that order: 9.89 and 8.87. Consider `N#CC[C@@]1(n2nc(Nc3ccc(S(=O)(=O)C4CCCCC4)cc3)c3c(=O)[nH]ccc32)CCCOC1` [Example 5-193, [(3S)-3-(3-{[4-(cyclohexylsulfonyl)phenyl]amino}-4-oxo-4,5-dihydro-1H-pyrazolo[4,3-c]pyridin-1-yl)tetrahydro-2H-pyran-3-yl]acetonitrile], for which the negative logarithm of the IC50 (pIC50) in assay [1] is 9.38; in assay [2], 9.18. For `CC(C)OC(=O)N1CCC(CC#N)(n2nc(Nc3ccnc(F)c3)c3c(=O)[nH]ccc32)CC1` [Example 13-1, isopropyl-4-(cyanomethyl)-4-(3-(2-fluoropyridin-4-ylamino)-4-oxo-4,5-dihydropyrazolo[4,3-c]pyridin-1-yl)piperidine-1-carboxylate], in that order: 9.66 and 8.42. For `CN(C)S(=O)(=O)c1ccc(Nc2nn(C3(CC#N)CCN(C(=O)CN4CCCC4=O)CC3)c3cc[nH]c(=O)c23)cc1` [Example 9-19, 4-[(1-{4-(cyanomethyl)-1-[(2-oxopyrrolidin-1-yl)acetyl]piperidin-4-yl}-4-oxo-4,5-dihydro-1H-pyrazolo[4,3-c]pyridin-3-yl)amino]-N,N-dimethylbenzenesulfonamide] the same measures were 9.59 and 8.50. For `CS(=O)(=O)c1ccc(Nc2nn(C3(CC#N)CCN(c4ccc(C#N)cn4)CC3)c3cc[nH]c(=O)c23)cc1` [Example 15-2, 6-(4-(cyanomethyl)-4-(3-((4(methylsulfonyl)phenyl)amino)-4-oxo-4,5-dihydro-1H-pyrazolo[4,3-c]pyridin-1-yl)piperidin-1-yl)nicotinonitrile], in that order: 10.40 and 10.40. As for `N#CC[C@]1(n2nc(Nc3ccc(C(N)C(F)(F)F)cc3)c3c(=O)[nH]ccc32)CCCC[C@H]1F` (single isomer, unassigned) [Example 5-177, {(1R,2R)-1-[3-({4-[(1S or 1R)-1-amino-2,2,2-trifluoroethyl]phenyl}amino)-4-oxo-4,5-dihydro-1H-pyrazolo[4,3-c]pyridin-1-yl]-2-fluorocyclohexyl} acetonitrile], the negative-log IC50 (pIC50) in assay [1] was 10.05; in assay [2] it was 9.80. For `Cc1nc2ccc(Nc3nn(C4(CC#N)CCCOC4)c4cc[nH]c(=O)c34)cc2s1` (stereo in doubt) [Example 21-5, [(3S)-3-{3-[(2-methyl-1,3-benzothiazol-6-yl)amino]-4-oxo-4,5-dihydro-1H-pyrazolo[4,3-c]pyridin-1-yl}tetrahydro-2H-pyran-3-yl]acetonitrile] the same measures were 10.05 and 8.88. For the compound `CC1(C)OC(=O)c2ccc(Nc3nn(C4(CC#N)CCCC4)c4cc[nH]c(=O)c34)cc21` [Example 5-126, (1-{3-[(3,3-dimethyl-1-oxo-1,3-dihydro-2-benzofuran-5-yl)amino]-4-oxo-4,5-dihydro-1H-pyrazolo[4,3-c]pyridin-1-yl}cyclopentyl)acetonitrile], in assay [1], the pIC50 is 8.34. The same measure, in the same setting: under `CC(C)(C)OC(=O)[C@@H]1CC[C@@](CC#N)(n2nc(Nc3ccc4c(c3)CN(C(C)(C)C)S4(=O)=O)c3c(=O)[nH]ccc32)CO1` [Example 5-41, (2S,5S)-tert-butyl 5-(3-((2-(tert-butyl)-1,1-dioxido-2,3-dihydrobenzo [d]isothiazol-5-yl)amino)-4-oxo-4,5-dihydro-1H-pyrazolo[4,3-c]pyridin-1-yl)-5-(cyanomethyl) tetrahydro-2H-pyran-2-carboxylate] stands 10.05; under `CC(C)(C)OC(=O)N1CCC(CC#N)(n2nc(Nc3cccc(S(C)(=O)=O)c3)c3c(=O)[nH]ccc32)CC1` [Example 5-13, tert-butyl 4-(cyanomethyl)-4-(3-{[3-(methylsulfonyl)phenyl]amino}-4-oxo-4,5-dihydro-1H-pyrazolo[4,3-c]pyridin-1-yl)piperidine-1-carboxylate], 9.30.
